# Tested on: cartilage and subchondral bone defect in the trochlear groove
# Test: Full-thickness cartilage defect healing with substance P delivery, histological grading
# Assay type: in vivo, rat
# Text: Purpose-bred male Wistar rats, were used in this Example. Rats were acclimated to the animal care facility for seven days before use. All rats then undergo general anesthesia for surgical induction of cartilage injury. All rats underwent bilateral surgery. At the time of surgery, miniosmotic pumps were placed for NP treatment. All pumps remained in place throughout the experiment. At various time intervals after the surgery (2, 4 and 6 weeks), the rats were euthanized each joint was harvested for histological analysis.
# Cartilage Injury: A […] long incision was made over the patellar tendon and the tendon and surrounding tissue was exposed. A mini-arthrotomy was made and the patella was subluxed (dislocated) to expose the femoral condyles and trochlear groove. A drill was used to create a full thickness (3 mm deep) hole, 0.635 mm in diameter, in the trochlear groove. The patella was then repositioned and the muscle fascia and subcutaneous tissue was closed with a continuous suture pattern, and the skin apposed with skin staples.
# Neuropeptide delivery: Substance P (75 pg/100 μl) was infused subcutaneously (0.25 μl/hr) via the implantation of mini-osmotic pumps (Alza Corp. Palo Alto, Calif.). In all rats, neuropeptide infused pumps were implanted in a subcutaneous pocket after induction of general anesthesia. […]
substance,measurement,setting,value
Substance P [SP],average cartilage repair score (0 no damage to 24),"Substance P 75 pg/100 μl, 0.25 μl/hr via mini-osmotic pump, initial two week period, Sellers grading",11.9
same,healing of cartilage and subchondral bone (in words),full-thickness cartilage defects after two weeks of healing,greatly improved healing of both the cartilage and subchondral bone

# From patent publication US20060247156A1, “Use of neuropeptides for ligament, cartilage, and bone healing” (priority 2004, published 2006)
